Laboratory results as given in patent publication US10939684B2, “Preparation of sulfonamide-containing antimicrobials and substrate treating compositions of sulfonamide-containing antimicrobials” (NANO SAFE COATINGS INCORPORATED, priority 2015, dated 2021).
Entries after “also recorded” stand apart in the source; their conditions may differ.

System: Arthrobacter spp.
Assay: Large-droplet inoculation method, antimicrobial efficacy at solid-air interfaces
Type: cell-based
Conditions: for Average: average of A-C; for A (cfu): replicate A; for B (cfu): replicate B; for C (cfu): replicate C
Description: Large-droplet inoculation method (Ronan E. et al, Biofouling 2013, 29, 1087-1096) Many pathogens are able to remain viable during extended periods of desiccation on inanimate surfaces. Long-term survival of pathogens in the inanimate environment pose a significant risk for infection transmission and contamination in high-risk environments such as hospital rooms or food-processing plants. The large-droplet inoculation method was developed to simulate the deposition of bacterial species onto exposed surfaces and to determine the ability of these cells to survive desiccation.
For these tests, small surface coupons were first coated with the antimicrobial using the method described above. Bacterial test species were grown overnight in a shaking incubator and cultures
were washed twice to replace the growth media with sterile water. 100 μL aliquots of the prepared culture were then inoculated onto multiple coated surfaces and allowed to air-dry within a biological safety cabinet. Drying typically occurred 2-3 hours after inoculation, and surviving cells were enumerated immediately and 24 hours after drying. For enumeration, inoculated coupons were sacrificed in triplicate and placed inside separate tubes containing 5 mL of a 0.9% saline collection liquid. Each coupon was agitated vigorously for 1 minute with a bench-top vortex to transfer cells from the test surface to the collection liquid. Plate counts were then performed on serial dilutions of the collection liquid, and colony counts from triplicate treated surfaces were averaged and compared to colony counts from tests of untreated control surfaces carried out in parallel.
A range of bacterial species were used in these tests. Arthrobacter spp., a gram-positive lab strain originally isolated from indoor air was used in the bulk of the testing, as it is known to be highly resistant to desiccation and therefore was used as a model for desiccation-tolerant pathogens. Efficacy tests were also carried out against, for example, gram-negative Escherichia coli (E. coli) and gram-positive Staphylococcus aureus (S. aureus), since they all contain pathogenic strains and have been implicated in major nosocomial outbreaks. […] The following are the tabulated bacterial reduction data: […]

[1] = treated cotton, compared to untreated control (FIG. 3, FIG. 4)
[2] = treated cotton, 3 hours, load 6.10E+07
[3] = treated cotton, 24 hours, load 6.10E+07
[4] = treated polyethylene, 3 hours, load 2.70E+07
[5] = treated polyethylene, 24 hours, load 2.70E+07
[6] = treated cotton, 3 hours, load 1.28E+08
[7] = treated cotton, 3 hours, load 4.04E+07
[8] = treated cotton, 24 hours, load 1.28E+08
[9] = treated cotton, 24 hours, load 4.04E+07

Q: How did the “activity against Arthrobacter spp. (in words)” value (shortened to “activity”) (treated polyethylene coupons, compared to untreated control (FIG. 5)) turn out when `C[N+](C)(CCCNS(=O)(=O)c1cccc2ccccc12)CCCOc1ccc(C(=O)c2ccccc2)cc1.[Br-]` [3-(4-benzoylphenoxy)-N,N-dimethyl-N-(3-(naphthalene-1-sulfonamido)propyl)propan-1-aminium bromide] was run?
A: The value was “excellent activity”.

Q: Which “activity” value [1] does the source give for `CO[Si](CCC[N+](C)(C)CCCNS(=O)(=O)c1ccccc1)(OC)OC.[Cl-]` [Example 1a, N,N-dimethyl-3-(phenylsulfonamido)-N-(3-(trimethoxysilyl)propyl)propan-1-aminium chloride] here?
A: Its value is “eradicated within three hours; also recorded: excellent activity”.

Q: And the Average [2]?
A: Its Average is 0.00E+00 cfu.

Q: What about the “A (cfu)” value [2] of the same compound?
A: The value was 0.00E+00 cfu.

Q: And the “B (cfu)” value [2]?
A: Its value is 0.00E+00 cfu.

Q: And the “C (cfu)” value [2]?
A: Its value is 0.00E+00 cfu.

Q: And the Average [3]?
A: The Average was 0.00E+00 cfu.

Q: What about the “A (cfu)” value [3] of the same compound?
A: Its value is 0.00E+00 cfu.

Q: And the “B (cfu)” value [3]?
A: Its value is 0.00E+00 cfu.

Q: What about the “C (cfu)” value [3] of the same compound?
A: Its value is 0.00E+00 cfu.

Q: `C[N+](C)(CCCNS(=O)(=O)c1ccccc1)CCCOc1ccc(C(=O)c2ccccc2)cc1.[Br-]` [Example 1c, 3-(4-benzoylphenoxy)-N,N-dimethyl-N-(3-(phenylsulfonamido)propyl) propan-1-aminium bromide] was tested. Which “activity” value (treated polyethylene coupons, compared to untreated control (FIG. 5), listed as 3-(4-benzoylphenoxy)-N,N-dimethyl-N-(3-(phenyl sulfonamido)propyl)propan- 1-amin) did it give?
A: The value was “excellent activity”.

Q: And the “activity” value (treated polyethylene coupons, compared to untreated control (FIG. 5), listed as 3-(4-benzoylphenoxy)-N,N-dimethyl-N-(3-(phenylsulfonamido)propyl)propan-1-aminiu)?
A: Its value is “eradicated within three hours”.

Q: What about the Average [4] of the same compound?
A: The Average was 0.00E+00 cfu.

Q: And the “A (cfu)” value [4]?
A: The value was 0.00E+00 cfu.

Q: And the “B (cfu)” value [4]?
A: Its value is 0.00E+00 cfu.

Q: And the “C (cfu)” value [4]?
A: Its value is 0.00E+00 cfu.

Q: What about the Average [5] of the same compound?
A: The Average was 0.00E+00 cfu.

Q: And the “A (cfu)” value [5]?
A: Its value is 0.00E+00 cfu.

Q: What about the “B (cfu)” value [5] of the same compound?
A: The value was 0.00E+00 cfu.

Q: And the “C (cfu)” value [5]?
A: Its value is 0.00E+00 cfu.

Q: Which “activity” value (treated cotton, compared to untreated control (FIG. 3, FIG. 4), listed as N,N-dimethyl-3-(4-methylphenyl sulfonamido)-N-(3-(trimethoxysilyl)propyl)propan-) does the source give for `CO[Si](CCC[N+](C)(C)CCCNS(=O)(=O)c1ccc(C)cc1)(OC)OC.[Cl-]` [Example 2a, N,N-dimethyl-3-(4-methylphenylsulfonamido)-N-(3-(trimethoxysilyl)propyl) propan-1-aminium chloride] here?
A: Its value is “excellent activity”.

Q: And the “activity” value (treated cotton, compared to untreated control (FIG. 3, FIG. 4), listed as N,N-dimethyl-3-(4-methylphenylsulfonamido)-N-(3-(trimethoxysilyl) propyl)propan-)?
A: The value was “excellent activity”.

Q: What about the “activity” value (treated cotton, compared to untreated control (FIG. 3, FIG. 4), listed as N,N-dimethyl-3-(4-methylphenylsulfonamido)-N-(3-(trimethoxysilyl)propyl)propan-1) of the same compound?
A: Its value is “eradicated within three hours”.

Q: What about the Average [6] of the same compound?
A: The Average was 0.00E+00 cfu.

Q: And the “A (cfu)” value [6]?
A: The value was 0.00E+00 cfu.

Q: And the “B (cfu)” value [6]?
A: The value was 0.00E+00 cfu.

Q: What about the “C (cfu)” value [6] of the same compound?
A: The value was 0.00E+00 cfu.

Q: What about the Average [7] of the same compound?
A: Its Average is 0.00E+00 cfu.

Q: And the “A (cfu)” value [7]?
A: The value was 0.00E+00 cfu.

Q: What about the “B (cfu)” value [7] of the same compound?
A: The value was 0.00E+00 cfu.

Q: What about the “C (cfu)” value [7] of the same compound?
A: The value was 0.00E+00 cfu.

Q: And the Average [8]?
A: The Average was 0.00E+00 cfu.

Q: And the “A (cfu)” value [8]?
A: Its value is 0.00E+00 cfu.

Q: What about the “B (cfu)” value [8] of the same compound?
A: Its value is 0.00E+00 cfu.

Q: What about the “C (cfu)” value [8] of the same compound?
A: The value was 0.00E+00 cfu.

Q: And the Average [9]?
A: The Average was 0.00E+00 cfu.

Q: And the “A (cfu)” value [9]?
A: Its value is 0.00E+00 cfu.

Q: What about the “B (cfu)” value [9] of the same compound?
A: The value was 0.00E+00 cfu.

Q: What about the “C (cfu)” value [9] of the same compound?
A: The value was 0.00E+00 cfu.

Q: What does the source list for `CO[Si](CCC[N+](C)(C)CCCNS(=O)(=O)c1c(C)cc(C)cc1C)(OC)OC.[Cl-]` [Example 3a, N,N-dimethyl-3-(trimethoxysilyl)-N-(3-(2,4,6-trimethylphenylsulfonamido)propyl)propan-1-aminium chloride]?
A: activity against Arthrobacter spp. (in words) (treated cotton, compared to untreated control (FIG. 3, FIG. 4), listed as N,N-dimethyl-3-(trimethoxysilyl)-N-(3-(2,4,6-trimethyl phenylsulfonamido)propyl)): excellent activity; activity against Arthrobacter spp. (in words) (treated cotton, compared to untreated control (FIG. 3, FIG. 4), listed as N,N-dimethyl-3-(trimethoxysilyl)-N-(3-(2,4,6-trimethylphenylsulfonamido)propyl)p): eradicated within three hours; Average [7]: 0.00E+00 cfu; A (cfu) [7]: 0.00E+00 cfu; B (cfu) [7]: 0.00E+00 cfu; C (cfu) [7]: 0.00E+00 cfu; Average [9]: 0.00E+00 cfu; A (cfu) [9]: 0.00E+00 cfu; B (cfu) [9]: 0.00E+00 cfu; C (cfu) [9]: 0.00E+00 cfu

Q: What does the source list for `CO[Si](CCC[N+](C)(C)CCCNS(=O)(=O)c1cccc2ccccc12)(OC)OC.[Cl-]` [Example 5a, N,N-dimethyl-3-(naphthalene-1-sulfonamido)-N-(3-(trimethoxysilyl)propyl)propan-1-aminium chloride]?
A: activity against Arthrobacter spp. (in words) [1]: eradicated within three hours; also recorded: excellent activity; Average [2]: 0.00E+00 cfu; A (cfu) [2]: 0.00E+00 cfu; B (cfu) [2]: 0.00E+00 cfu; C (cfu) [2]: 0.00E+00 cfu; Average [3]: 0.00E+00 cfu; A (cfu) [3]: 0.00E+00 cfu; B (cfu) [3]: 0.00E+00 cfu; C (cfu) [3]: 0.00E+00 cfu

Q: With `C[N+](C)(CCCNS(=O)(=O)c1cccc2ccccc12)CCCOc1ccc(C(=O)c2ccccc2)cc1.[Br-]` [Example 5c, 3-(4-benzoylphenoxy)-N,N-dimethyl-N-(3-(naphthalene-1-sulfonamido)propyl)propan-1-aminium bromide] as the compound, how does the “activity” value (treated polyethylene coupons, compared to untreated control (FIG. 5), listed as 3-(4-benzoylphenoxy)-N,N-dimethyl-N-(3-(naphthalene-1-sulfonamido)propyl)propan-) read?
A: Its value is “eradicated within three hours”.

Q: What about the Average [4] of the same compound?
A: Its Average is 0.00E+00 cfu.

Q: And the “A (cfu)” value [4]?
A: The value was 0.00E+00 cfu.

Q: What about the “B (cfu)” value [4] of the same compound?
A: Its value is 0.00E+00 cfu.

Q: And the “C (cfu)” value [4]?
A: The value was 0.00E+00 cfu.

Q: And the Average [5]?
A: Its Average is 0.00E+00 cfu.

Q: And the “A (cfu)” value [5]?
A: The value was 0.00E+00 cfu.

Q: And the “B (cfu)” value [5]?
A: The value was 0.00E+00 cfu.

Q: What about the “C (cfu)” value [5] of the same compound?
A: The value was 0.00E+00 cfu.
